Source: the NIST ThermoML archive (doi:10.1016/j.jct.2012.05.008)

Test: xn = mol fraction of the nth substance listed
Details: Liquid, Vibrating tube method, x2 = 0.3333

NC(N)=O [urea] + C[N+](C)(C)CCO.[Cl-]
mass density [kg/m3]
Details	298.15 K	303.15 K	308.15 K	313.15 K	318.15 K	323.15 K
100 kPa	1197.9	1195.1	1192.2	1189.3	1186.4	1183.5
5000 kPa	1199.3	1196.4	1193.6	1190.7	1187.8	1184.9
10000 kPa	1200.6	1197.9	1194.9	1192	1189.2	1186.3
15000 kPa	1201.9	1199.1	1196.3	1193.4	1190.5	1187.6
20000 kPa	1203.3	1200.4	1197.6	1194.7	1191.9	1189
25000 kPa	1204.6	1201.8	1198.9	1196.1	1193.2	1190.4
30000 kPa	1205.9	1203.1	1200.3	1197.4	1194.6	1191.6
35000 kPa	1207.1	1204.4	1201.5	1198.7	1195.8	1193
40000 kPa	1208.3	1205.6	1202.8	1200	1197.1	1194.2
45000 kPa	1209.5	1206.8	1204	1201.2	1198.3	1195.5
50000 kPa	1210.7	1208	1205.1	1202.3	1199.5	1196.7
